Assay results reported in patent publication US20080221161A1, “HETEROCYCLIC MODULATORS OF TGR5 FOR TREATMENT OF DISEASE” (KALYPSYS, INC., priority 2007, published 2008).

Target: T1, human TGR5 (Homo sapiens, UniProt Q8TDU6)
T1 construct: expressed in transfected cells; host or cells: HEK-293 cells, stably transfected (pcDNA 3.1, Fugene6, geneticin selection)
T1 sequence (Q8TDU6 1-330): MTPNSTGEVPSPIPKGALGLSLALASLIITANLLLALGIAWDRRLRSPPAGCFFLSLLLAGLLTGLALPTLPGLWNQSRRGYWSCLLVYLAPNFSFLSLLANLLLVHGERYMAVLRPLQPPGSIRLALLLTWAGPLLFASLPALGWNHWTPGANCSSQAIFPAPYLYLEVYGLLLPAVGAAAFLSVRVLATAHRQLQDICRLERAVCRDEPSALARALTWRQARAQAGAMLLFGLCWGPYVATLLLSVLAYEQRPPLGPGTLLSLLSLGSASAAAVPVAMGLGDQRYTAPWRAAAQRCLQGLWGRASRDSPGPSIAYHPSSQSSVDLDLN
Assay: cAMP production assay in HEK293-TGR5 cells
Type: cell-based
Details: HEK293 cells stably expressing human TGR5; 30 minutes stimulation; LANCE cAMP TR-FRET; read-out: cAMP Production in 293-TGR5 Cells EC50
Description: HEK293 cells stably expressing TGR5 (HEK293-TGR5) were established by stably transfecting HEK-293 cells with an expression vector (pcDNA 3.1, Invetrogen) inserted with human TGR5 cDNA using Fugene6 (Roche, Indianapolis, Ind.) according to conventional methods. Cells were grown in DMEM (invitrogen, Carlsbad, Calif.) supplemented with 10% FBS, 1% penicillin/streptomycin under geneticin selection. The presence of TGR5 transcripts in these cells was confirmed using branched DNA (bDNA, Genospectra, Inc., Fremont Calif.) following the manufacturer's protocol and using specific probes for human TGR5. cAMP production assay was performed in high throughput 1536 well format using LANCE cAMP detection kit (Perkin Elmer Inc., Boston, Mass.) according to the manufacturer's protocol. Briefly, HEK293-TGR5 cells were harvested using non-enzymatic cell dissociation buffer (Invitrogen, Carlsbad, Calif.) and suspended in DMEM supplemented with 0.1% FBS at a density of 800,000 cells/ml. Alexa antibody was added to the cell suspension, and 4 ul of the mixture was dispensed in white opaque tissue culture treated Greiner 1536 well plates (USA Scientific, Inc., Ocala, Fla.). After an overnight incubation at 37C in an atmosphere of 10% CO2 and 95% humidity, 1 ul of 5 mM IBMX (Sigma, St. Louis, Mo.) solution in DMEM was dispensed for a final concentration of 1 mM. Cells were then stimulated with test compounds for 30 minutes, after which time 5 ul of detection reagent was added and incubated for 1-7 hrs at room temperature. TR-FRET signal was detected using the Viewlux (Perkin Elmer Inc., Boston Mass.). EC50 values were determined using Graph Pad Prizm analysis (GraphPad Software, Inc).

EC50 [µM]	SMILES
< 10	COc1ccc2cc(CNC3CCc4ccccc43)c(-c3ccncc3)nc2c1 (racemic) [Example 86, (±)-N-((7-Methoxy-2-(pyridin-4-yl)quinolin-3-yl)methyl)-2,3-dihydro-1H-inden-1-amine]
> 10	COc1ccc2cc(C(C)NCCc3ccc(Br)cc3)c(-c3ccsc3)nc2c1 (racemic) [Example 143, (±)-N-(4-Bromophenethyl)-1-(7-methoxy-2-(thiophen-3-yl)quinolin-3-yl)ethanamine]
> 10	CC(NCCc1ccc(Br)cc1)c1cc2ccc(O)cc2nc1-c1ccsc1 (racemic) [Example 144, (±)-3-(1-(4-Bromophenethylamino)ethyl)-2-(thiophen-3-yl)quinolin-7-ol]
> 10	COc1ccc2cc(CNCc3ccc(C(F)(F)F)cc3)c(-c3ccsc3)nc2c1 [Example 1, 1-(7-methoxy-2-(thiophen-3-yl)quinolin-3-yl)-N-(4-(trifluoromethyl)benzyl)methanamine]
< 10	COc1ccc2cc(CNCc3cccc(C(F)(F)F)c3)c(-c3ccsc3)nc2c1 [Example 3, 1-(7-Methoxy-2-(thiophen-3-yl)quinolin-3-yl)-N-(3-(trifluoromethyl)benzyl)methanamine]
> 10	Cc1cccc2cc(CNCCc3ccc(Cl)cc3)c(-c3ccsc3)nc12 [Example 4, 2-(4-Chlorophenyl)-N-((8-methyl-2-(thiophen-3-yl)quinolin-3-yl)methyl)ethanamine]
< 10	Cc1cccc2cc(CNCc3ccc(C(F)(F)F)cc3)c(-c3ccsc3)nc12 [Example 5, 1-(8-Methyl-2-(thiophen-3-yl)quinolin-3-yl)-N-(4-(trifluoromethyl)benzyl)methanamine]
< 10	COc1ccc2cc(CNCc3ccc(C(F)(F)F)cc3)c(-c3cccnc3)nc2c1 [Example 6, 1-(7-Methoxy-2-(pyridin-3-yl)quinolin-3-yl)-N-(4-(trifluoromethyl)benzyl)methanamine]
< 10	COc1ccc2cc(CNCCc3ccc(Cl)cc3)c(-c3cccnc3)nc2c1 [Example 7, 2-(4-Chlorophenyl)-N-((7-methoxy-2-(pyridin-3-yl)quinolin-3-yl)methyl)ethanamine]
< 10	COc1ccc2cc(CNCCc3ccc(F)cc3)c(-c3cccnc3)nc2c1 [Example 8, 2-(4-Fluorophenyl)-N-((7-methoxy-2-(pyridin-3-yl)quinolin-3-yl)methyl)ethanamine]
> 10	COc1ccc2cc(CNCc3ccc(OC(F)(F)F)cc3)c(-c3cccnc3)nc2c1 [Example 10, 1-(7-Methoxy-2-(pyridin-3-yl)quinolin-3-yl)-N-(4-(trifluoromethoxy)benzyl)methanamine]
< 10	COc1ccc2cc(CNCc3ccc(N(C)C)cc3)c(-c3cccnc3)nc2c1 [Example 11, 4-(((7-Methoxy-2-(pyridin-3-yl)quinolin-3-yl)methylamino)methyl)-N,N-dimethylaniline]
< 10	FC(F)(F)Oc1ccc2cc(CNCc3ccc(C(F)(F)F)cc3)c(-c3ccsc3)nc2c1 [Example 12, 1-(2-(Thiophen-3-yl)-7-(trifluoromethoxy)quinolin-3-yl)-N-(4-(trifluoromethyl)benzyl)methanamine]
> 10	FC(F)(F)Oc1ccc2cc(CNCCc3ccc(Cl)cc3)c(-c3ccsc3)nc2c1 [Example 13, 2-(4-Chlorophenyl)-N-((2-(thiophen-3-yl)-7-(trifluoromethoxy)quinolin-3-yl)methyl)ethanamine]
> 10	FC(F)(F)Oc1ccc2cc(CNCCc3ccc(Cl)cc3)c(-c3cccnc3)nc2c1 [Example 14, 2-(4-Chlorophenyl)-N-((2-(pyridin-3-yl)-7-(trifluoromethoxy)quinolin-3-yl)methyl)ethanamine]
< 10	FC(F)(F)Oc1ccc2cc(CNCc3ccc(C(F)(F)F)cc3)c(-c3cccnc3)nc2c1 [Example 15, 1-(2-(Pyridin-3-yl)-7-(trifluoromethoxy)quinolin-3-yl)-N-(4-(trifluoromethyl)benzyl)-methanamine]
> 10	FC(F)(F)Oc1ccc2cc(CNCCc3ccc(Br)cc3)c(-c3cccnc3)nc2c1 [Example 16, 2-(4-Bromophenyl)-N-((2-(pyridin-3-yl)-7-(trifluoromethoxy)quinolin-3-yl)methyl)ethanamine]

EC50 [µM]	SMILES
> 10	COc1ccc2cc(CNC(=O)c3ccc(C(F)(F)F)cc3)c(-c3ccsc3)nc2c1 [Example 17, N-((7-methoxy-2-(thiophen-3-yl)quinolin-3-yl)methyl)-4-(trifluoromethyl)benzamide]
> 10	COc1ccc2cc(C(=O)NCc3ccc(C(F)(F)F)cc3)c(-c3ccsc3)nc2c1 [Example 18, 7-methoxy-2-(thiophen-3-yl)-N-(4-(trifluoromethyl)benzyl)quinoline-3-carboxamide]
< 10	COc1ccc2cc(C(=O)NCCc3ccc(Cl)cc3)c(-c3ccsc3)nc2c1 [Example 19, N-(4-Chlorophenethyl)-7-methoxy-2-(thiophen-3-yl)quinoline-3-carboxamide]
< 10	COc1ccc2cc(CNCc3ccc(C(F)(F)F)cc3)c(-c3cnn(C)c3)nc2c1 [Example 20, 1-(7-Methoxy-2-(1-methyl-1H-pyrazol-4-yl)quinolin-3-yl)-N-(4-(trifluoromethyl)benzyl)methanamine]
< 10	COc1ccc2cc(CNCCc3ccc(Cl)cc3)c(-c3cnn(C)c3)nc2c1 [Example 21, 2-(4-Chlorophenyl)-N-((7-methoxy-2-(1-methyl-1H-pyrazol-4-yl)quinolin-3-yl)methyl)ethanamine]
< 10	COc1ccc2cc(CNCCc3ccc(Cl)cc3)c(-c3ccncc3)nc2c1 [Example 22, 2-(4-Chlorophenyl)-N-((7-methoxy-2-(pyridin-4-yl)quinolin-3-yl)methyl)ethanamine]
< 10	COc1ccc2cc(CNCc3ccc(C(F)(F)F)cc3)c(-c3ccncc3)nc2c1 [Example 23, 1-(7-Methoxy-2-(pyridin-4-yl)quinolin-3-yl)-N-(4-(trifluoromethyl)benzyl)methanamine]
> 10	COc1ccc2cc(CNCc3ccc(C(F)(F)F)cc3)c(-c3ccccc3F)nc2c1 [Example 24, 1-(2-(2-Fluorophenyl)-7-methoxyquinolin-3-yl)-N-(4-(trifluoromethyl)benzyl)methanamine]
< 10	COc1ccc2cc(CNCCc3ccc(Cl)cc3)c(-c3ccccc3F)nc2c1 [Example 25, 2-(4-Chlorophenyl)-N-((2-(2-fluorophenyl)-7-methoxyquinolin-3-yl)methyl)ethanamine]
> 10	COc1ccc2nc(-c3ccsc3)c(CNCc3ccc(C(F)(F)F)cc3)cc2c1 [Example 26, 1-(6-Methoxy-2-(thiophen-3-yl)quinolin-3-yl)-N-(4-(trifluoromethyl)benzyl)methanamine]
> 10	COc1ccc2nc(-c3ccsc3)c(CNCCc3ccc(Cl)cc3)cc2c1 [Example 27, 2-(4-Chlorophenyl)-N-((6-methoxy-2-(thiophen-3-yl)quinolin-3-yl)methyl)ethanamine]
< 10	FC(F)(F)c1ccc(CNCc2cc3ccccc3nc2-c2ccsc2)cc1 [Example 28, 1-(2-(Thiophen-3-yl)quinolin-3-yl)-N-(4-(trifluoromethyl)benzyl)-methanamine]
> 10	Clc1ccc(CCNCc2cc3ccccc3nc2-c2ccsc2)cc1 [Example 29, 2-(4-Chlorophenyl)-N-((2-(thiophen-3-yl)quinolin-3-yl)methyl)-ethanamine]
> 10	COc1ccc2cc(CNCc3ccc(C(F)(F)F)cc3)c(-c3nccs3)nc2c1 [Example 30, 1-(7-methoxy-2-(thiazol-2-yl)quinolin-3-yl)-N-(4-(trifluoromethyl)benzyl)methanamine]
> 10	COc1ccc2cc(CNCCc3ccc(Cl)cc3)c(-c3nccs3)nc2c1 [Example 31, 2-(4-Chlorophenyl)-N-((7-methoxy-2-(thiazol-2-yl)quinolin-3-yl)methyl)ethanamine]
> 10	COc1ccc2cc(CN(CCc3ccc(Cl)cc3)C(C)=O)c(-c3ccsc3)nc2c1 [Example 32, N-(4-Chlorophenethyl)-N-((7-methoxy-2-(thiophen-3-yl)quinolin-3-yl)methyl)acetamide]
> 10	COc1ccc2cc(CN(CCc3ccc(Cl)cc3)S(C)(=O)=O)c(-c3ccsc3)nc2c1 [Example 33, N-(4-Chlorophenethyl)-N-((7-methoxy-2-(thiophen-3-yl)quinolin-3-yl)methyl)methanesulfonamide]
